Data taken from ChEMBL document CHEMBL1145312, “Structure-activity relationships of triazolopyridine oxazole p38 inhibitors: identification of candidates for clinical development” (Bioorg Med Chem Lett, 2006).
In brackets after ≈: the same amount, converted by molar mass.

How the values were obtained:
[1] = target: T1, Mitogen-activated protein kinase 12 (Homo sapiens, UniProt P53778); experiment: Inhibition of p38-gamma
T1 sequence (P53778 whole entry): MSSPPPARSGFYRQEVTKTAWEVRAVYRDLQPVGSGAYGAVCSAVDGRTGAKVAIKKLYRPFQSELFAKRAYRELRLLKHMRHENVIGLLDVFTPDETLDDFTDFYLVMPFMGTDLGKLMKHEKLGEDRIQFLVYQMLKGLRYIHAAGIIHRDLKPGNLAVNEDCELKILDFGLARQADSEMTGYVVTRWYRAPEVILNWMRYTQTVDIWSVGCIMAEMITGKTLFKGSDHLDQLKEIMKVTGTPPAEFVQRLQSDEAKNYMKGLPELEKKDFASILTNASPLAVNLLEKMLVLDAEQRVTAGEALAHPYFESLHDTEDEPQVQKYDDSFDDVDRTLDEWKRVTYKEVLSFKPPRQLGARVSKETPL

[2] = Inhibition of phosphorylase kinase
[3] = Hepatocyte microsomal extraction ratio in human; conditions: hepatic microsomes
[4] = target: Tyrosine-protein kinase CSK (Homo sapiens, UniProt P41240); experiment: Inhibition of CSK
[5] = target: Tyrosine-protein kinase Lck (Homo sapiens, UniProt P06239); experiment: Inhibition of Lck
[6] = Inhibition of PKC
[7] = target: Mitogen-activated protein kinase 1 (Homo sapiens, UniProt P28482); experiment: Inhibition of ERK2
[8] = target: Protein kinase C alpha type (Homo sapiens, UniProt P17252); experiment: Inhibition of PKCalpha
Monocyte = experiment: Inhibition of LPS-induced TNFalpha production in human monocytes; format: functional, cell-based
[9] = target: T2, 3-phosphoinositide-dependent protein kinase 1 (Homo sapiens, UniProt O15530); experiment: Inhibition of PDK1
T2 sequence (O15530 whole entry): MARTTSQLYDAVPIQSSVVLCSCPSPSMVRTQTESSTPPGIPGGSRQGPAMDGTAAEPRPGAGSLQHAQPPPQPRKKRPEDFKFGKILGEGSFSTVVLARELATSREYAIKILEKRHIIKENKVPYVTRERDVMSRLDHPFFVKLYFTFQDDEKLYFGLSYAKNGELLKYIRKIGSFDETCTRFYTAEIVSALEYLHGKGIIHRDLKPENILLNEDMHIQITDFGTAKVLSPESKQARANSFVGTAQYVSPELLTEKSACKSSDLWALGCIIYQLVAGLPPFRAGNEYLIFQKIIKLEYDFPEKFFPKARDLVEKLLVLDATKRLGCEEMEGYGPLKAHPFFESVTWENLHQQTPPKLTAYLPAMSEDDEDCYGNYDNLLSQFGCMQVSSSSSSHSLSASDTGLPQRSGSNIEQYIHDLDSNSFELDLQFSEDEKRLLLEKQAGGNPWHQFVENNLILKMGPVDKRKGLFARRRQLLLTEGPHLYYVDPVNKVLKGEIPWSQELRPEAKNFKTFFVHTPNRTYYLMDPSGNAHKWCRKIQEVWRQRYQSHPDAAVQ

[10] = target: Ribosomal protein S6 kinase alpha-1 (Homo sapiens, UniProt Q15418); experiment: Inhibition of MAPKAP-K1a
[11] = Half life in rat; format: ADME, organism-based; conditions: in vivo
[12] = Plasma clearance in monkey; format: ADME, organism-based, Macaca mulatta; conditions: rhesus monkey
hERG (KCNH2) = hERG (KCNH2) (Homo sapiens, UniProt Q12809); experiment: Inhibition of hERG channel current in HEK293 cells at 3 uM; format: toxicity, cell-based; conditions: HEK293 cells that express hERG
[13] = Plasma clearance in rat; format: ADME, organism-based
[14] = Volume of distribution in monkey; format: ADME, organism-based, Macaca mulatta; conditions: rhesus monkey, in vivo; read-out: Vdss
Rattus norvegicus = species: Rattus norvegicus; experiment: Inhibition of LPS-induced TNFalpha release in rat; format: functional
[15] = Half life in monkey; format: ADME, organism-based, Macaca mulatta; conditions: rhesus monkey, in vivo
[16] = Volume of distribution in rat; format: ADME, organism-based; conditions: in vivo, read-out: Vdss
[17] = Solubility in PBS buffer at ph 6.5; format: physicochemical
[18] = Bioavailability in monkey; format: ADME, organism-based, Macaca mulatta; conditions: rhesus monkey, in vivo
[19] = Bioavailability in rat; format: ADME, organism-based; conditions: in vivo
[20] = Permeability from apical to basolateral side of Caco-2 cell membrane; format: ADME, cell-based; conditions: human
[21] = Permeability from basolateral to apical side of Caco-2 cell membrane; format: ADME, cell-based; conditions: human
Casein kinase II = Casein kinase II (Homo sapiens, UniProt P19784+P67870+P68400); experiment: Inhibition of CK2; format: protein-complex assay
Casein kinase II, sequence (P67870 whole entry): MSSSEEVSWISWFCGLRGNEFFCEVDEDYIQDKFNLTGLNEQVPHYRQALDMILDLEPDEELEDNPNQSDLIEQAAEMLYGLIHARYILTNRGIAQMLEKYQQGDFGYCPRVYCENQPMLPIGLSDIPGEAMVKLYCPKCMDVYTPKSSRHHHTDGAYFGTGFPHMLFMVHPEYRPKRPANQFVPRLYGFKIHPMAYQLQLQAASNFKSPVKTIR
Casein kinase II, sequence (P68400 whole entry): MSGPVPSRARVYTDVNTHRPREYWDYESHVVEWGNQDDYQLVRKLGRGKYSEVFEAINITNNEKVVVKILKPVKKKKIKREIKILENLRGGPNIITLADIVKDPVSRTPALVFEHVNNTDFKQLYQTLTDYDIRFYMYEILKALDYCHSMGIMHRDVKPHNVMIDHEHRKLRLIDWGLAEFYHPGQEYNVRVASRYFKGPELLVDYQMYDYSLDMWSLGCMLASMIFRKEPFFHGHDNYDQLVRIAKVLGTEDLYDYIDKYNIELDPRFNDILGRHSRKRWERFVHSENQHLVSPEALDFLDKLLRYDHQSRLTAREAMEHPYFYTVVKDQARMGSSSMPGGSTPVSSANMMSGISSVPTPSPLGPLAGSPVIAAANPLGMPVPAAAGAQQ
Casein kinase II, sequence (P19784 whole entry): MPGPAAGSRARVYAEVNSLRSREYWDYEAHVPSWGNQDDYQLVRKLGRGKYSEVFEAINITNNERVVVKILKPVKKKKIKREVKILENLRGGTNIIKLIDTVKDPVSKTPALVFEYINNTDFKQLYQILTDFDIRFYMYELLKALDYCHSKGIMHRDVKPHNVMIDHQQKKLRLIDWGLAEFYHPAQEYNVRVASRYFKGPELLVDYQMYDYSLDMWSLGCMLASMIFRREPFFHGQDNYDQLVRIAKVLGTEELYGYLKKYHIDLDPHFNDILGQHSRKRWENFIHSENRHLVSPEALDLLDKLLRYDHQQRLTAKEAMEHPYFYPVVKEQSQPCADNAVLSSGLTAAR

Mitogen-activated protein kinase 1, sequence (P28482 whole entry): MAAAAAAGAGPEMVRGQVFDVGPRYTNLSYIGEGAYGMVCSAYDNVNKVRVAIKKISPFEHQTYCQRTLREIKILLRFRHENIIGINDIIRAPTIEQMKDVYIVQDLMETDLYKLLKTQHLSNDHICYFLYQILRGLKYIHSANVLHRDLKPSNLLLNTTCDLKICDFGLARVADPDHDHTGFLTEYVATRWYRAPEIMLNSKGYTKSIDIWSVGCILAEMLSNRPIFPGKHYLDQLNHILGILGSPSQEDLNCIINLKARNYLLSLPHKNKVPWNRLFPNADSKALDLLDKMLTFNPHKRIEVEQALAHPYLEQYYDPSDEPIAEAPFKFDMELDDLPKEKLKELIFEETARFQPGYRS
Tyrosine-protein kinase Lck, sequence (P06239 whole entry): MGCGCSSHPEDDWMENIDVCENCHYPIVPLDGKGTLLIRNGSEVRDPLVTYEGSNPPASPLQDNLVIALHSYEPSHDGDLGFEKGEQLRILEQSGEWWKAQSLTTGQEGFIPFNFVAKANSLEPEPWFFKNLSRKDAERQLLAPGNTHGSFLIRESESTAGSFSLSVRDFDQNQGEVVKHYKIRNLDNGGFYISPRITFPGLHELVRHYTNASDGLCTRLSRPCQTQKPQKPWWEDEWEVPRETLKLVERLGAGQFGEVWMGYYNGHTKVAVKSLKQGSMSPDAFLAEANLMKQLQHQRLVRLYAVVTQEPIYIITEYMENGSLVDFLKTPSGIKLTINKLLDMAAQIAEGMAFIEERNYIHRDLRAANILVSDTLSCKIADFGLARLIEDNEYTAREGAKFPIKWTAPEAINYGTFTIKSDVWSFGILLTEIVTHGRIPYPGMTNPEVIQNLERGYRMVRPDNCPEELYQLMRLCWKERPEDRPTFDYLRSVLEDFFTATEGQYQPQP
Ribosomal protein S6 kinase alpha-1, sequence (Q15418 whole entry): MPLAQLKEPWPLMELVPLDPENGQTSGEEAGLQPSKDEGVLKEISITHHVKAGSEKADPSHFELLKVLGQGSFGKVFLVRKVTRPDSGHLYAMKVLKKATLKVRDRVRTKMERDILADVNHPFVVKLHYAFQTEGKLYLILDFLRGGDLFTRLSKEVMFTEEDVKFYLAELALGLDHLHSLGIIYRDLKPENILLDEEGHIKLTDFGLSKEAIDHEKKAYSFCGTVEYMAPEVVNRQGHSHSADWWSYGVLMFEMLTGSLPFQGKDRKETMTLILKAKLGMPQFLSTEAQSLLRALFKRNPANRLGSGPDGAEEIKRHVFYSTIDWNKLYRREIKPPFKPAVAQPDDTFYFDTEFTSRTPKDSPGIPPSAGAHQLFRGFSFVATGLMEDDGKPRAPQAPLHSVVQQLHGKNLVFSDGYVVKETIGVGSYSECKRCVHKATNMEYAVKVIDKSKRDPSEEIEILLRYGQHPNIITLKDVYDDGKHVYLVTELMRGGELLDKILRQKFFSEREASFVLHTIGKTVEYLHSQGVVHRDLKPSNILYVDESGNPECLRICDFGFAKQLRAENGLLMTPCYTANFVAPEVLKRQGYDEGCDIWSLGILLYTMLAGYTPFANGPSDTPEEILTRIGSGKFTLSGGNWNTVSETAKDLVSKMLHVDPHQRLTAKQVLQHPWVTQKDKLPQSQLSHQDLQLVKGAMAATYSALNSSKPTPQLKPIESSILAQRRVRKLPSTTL
Tyrosine-protein kinase CSK, sequence (P41240 whole entry): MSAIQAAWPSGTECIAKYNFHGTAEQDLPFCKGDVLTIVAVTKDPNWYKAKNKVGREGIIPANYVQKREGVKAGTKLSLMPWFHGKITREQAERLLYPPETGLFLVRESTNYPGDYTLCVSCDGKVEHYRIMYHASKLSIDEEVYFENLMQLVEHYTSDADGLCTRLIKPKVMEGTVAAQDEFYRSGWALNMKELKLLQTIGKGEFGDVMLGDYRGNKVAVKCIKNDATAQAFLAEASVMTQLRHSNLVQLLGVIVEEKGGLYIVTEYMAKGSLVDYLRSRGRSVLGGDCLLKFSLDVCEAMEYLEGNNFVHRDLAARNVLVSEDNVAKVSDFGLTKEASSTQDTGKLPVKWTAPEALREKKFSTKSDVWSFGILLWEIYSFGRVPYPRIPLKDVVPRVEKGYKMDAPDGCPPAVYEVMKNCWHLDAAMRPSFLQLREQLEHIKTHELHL
hERG (KCNH2), sequence (Q12809 whole entry): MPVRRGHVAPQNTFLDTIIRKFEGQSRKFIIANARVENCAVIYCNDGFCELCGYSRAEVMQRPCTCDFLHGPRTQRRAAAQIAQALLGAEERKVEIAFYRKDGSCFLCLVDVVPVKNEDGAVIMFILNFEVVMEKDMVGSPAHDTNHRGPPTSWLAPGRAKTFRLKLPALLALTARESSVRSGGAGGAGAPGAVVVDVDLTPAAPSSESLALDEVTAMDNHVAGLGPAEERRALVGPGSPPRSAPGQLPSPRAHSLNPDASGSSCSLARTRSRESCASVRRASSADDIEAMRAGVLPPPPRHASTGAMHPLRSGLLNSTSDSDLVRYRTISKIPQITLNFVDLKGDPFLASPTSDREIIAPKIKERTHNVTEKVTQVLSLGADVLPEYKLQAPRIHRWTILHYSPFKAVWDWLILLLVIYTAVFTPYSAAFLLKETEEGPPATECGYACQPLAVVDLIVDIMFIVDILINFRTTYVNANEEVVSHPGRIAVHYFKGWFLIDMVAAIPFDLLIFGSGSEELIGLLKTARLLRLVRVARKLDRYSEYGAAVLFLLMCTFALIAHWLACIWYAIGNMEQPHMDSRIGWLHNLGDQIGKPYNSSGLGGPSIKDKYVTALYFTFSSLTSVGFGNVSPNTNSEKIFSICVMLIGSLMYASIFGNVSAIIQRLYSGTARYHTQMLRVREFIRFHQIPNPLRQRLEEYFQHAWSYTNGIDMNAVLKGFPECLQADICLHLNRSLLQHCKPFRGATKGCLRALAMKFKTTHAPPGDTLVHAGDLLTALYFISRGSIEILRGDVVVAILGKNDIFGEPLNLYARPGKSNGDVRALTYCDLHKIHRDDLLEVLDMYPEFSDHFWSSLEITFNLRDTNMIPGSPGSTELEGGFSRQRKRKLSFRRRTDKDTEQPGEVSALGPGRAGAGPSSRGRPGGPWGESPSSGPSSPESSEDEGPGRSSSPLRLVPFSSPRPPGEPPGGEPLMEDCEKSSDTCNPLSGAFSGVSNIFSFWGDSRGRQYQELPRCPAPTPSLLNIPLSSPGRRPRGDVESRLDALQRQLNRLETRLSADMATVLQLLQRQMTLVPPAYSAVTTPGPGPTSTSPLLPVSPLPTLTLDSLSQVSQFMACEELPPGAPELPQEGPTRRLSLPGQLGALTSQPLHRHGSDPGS

Structure (SMILES)	IC50 [1]	IC50 [2]	IC50 [4]	IC50 [5]	IC50 [6]	IC50 [7]	IC50 [8]	IC50 (Monocyte)	IC50 [9]	IC50 [10]	also measured
CC(C)(C)c1nnc2ccc(-c3ocnc3-c3ccc(F)cc3F)cn12	> 10 µM	> 10 µM	> 10 µM	> 10 µM	> 10 µM	> 10 µM	> 10 µM	0.0126 µM	> 10 µM	> 10 µM	hepatic extraction ratio [3]: < 0.3
CC(C)(C)c1nnc2ccc(-c3ocnc3-c3cc(F)c(F)cc3F)cn12	> 10 µM	> 10 µM	> 10 µM		> 10 µM	> 10 µM	> 10 µM	0.0083 µM	> 10 µM	> 10 µM	half-life [11]: 2.6 h; clearance [12]: 3.4 mL/min/kg; inhibition at 3 µM (hERG (KCNH2)): 5.9%; clearance [13]: 3 mL/min/kg; Vd [14]: 1.2 L/kg; ED50 (Rattus norvegicus): 0.1 mg/kg; half-life [15]: 5.2 h; Vd [16]: 0.6 L/kg; solubility [17]: 41 µg/mL (≈ 110 µM); bioavailability [18]: 66%; bioavailability [19]: 54%
CCNc1nnc2ccc(-c3ocnc3-c3ccc(F)cc3)cn12	> 10 µM	> 10 µM	> 10 µM	> 10 µM	> 10 µM	> 10 µM	> 10 µM	0.052 µM	> 10 µM	> 10 µM	
CC(C)c1nnc2ccc(-c3c[nH]nc3-c3cc(F)ccc3F)cn12	> 10 µM	> 10 µM	> 10 µM	> 10 µM	> 10 µM	> 10 µM	> 10 µM	0.0141 µM	> 10 µM	> 10 µM	Papp A→B [20]: 6 ×10⁻⁶ cm/s; Papp B→A [21]: 18 ×10⁻⁶ cm/s
CC(C)c1nnc2ccc(-c3ocnc3-c3ccccc3)cn12	> 10 µM	> 10 µM	> 10 µM		> 10 µM	> 10 µM	> 10 µM	0.0714 µM	> 10 µM	> 10 µM	IC50 (Casein kinase II): > 10 µM
